Kd data for four compounds are collected here from PMC7456513 (ACS infectious diseases, 2020).

Holding throughout (experiment): tryptophan fluorescence quenching titration
Holding throughout (format): binding

Test [1] deals with T1, HasAp (Pseudomonas aeruginosa, UniProt G3XD33). As to conditions: read-out: KD (nM, ± SD).
Test [2] has as its target T1, HasAp.
Test [3] concerns the target T1, HasAp. To be noted: read-out: KD (nM, ± SD). The source holds these as a separate data set.

Like-named read-outs stand apart in the source and are kept apart here.

As to `C1=[N+]2c3ccccc3[N+]3=Cc4ccccc4[O][Ga-]23[O]c2ccccc21` [GaSal], the Kd (as a rule, the free concentration of one partner at which half of the binding sites on the other are occupied at equilibrium, for simple one-to-one binding) in test [1] amounted to 2050 ± 280 nM.

In the case of `C=CC1=C(C)C2=Cc3c(C=C)c(C)c4[n]3[Fe][n]3c(c(C)c(CCC(=O)O)c3=CC3=NC(=C4)C(C)=C3CCC(=O)O)=CC1=N2` [heme], the Kd in test [2] turned out to be 350 ± 50 nM.

`C=CC1=C(C)C2=[N+]3C1=Cc1c(C)c(C=C)c4[n]1[Ga-]31[n]3c(c(C)c(CCC(=O)O)c3=CC3=[N+]1C(=C4)C(C)=C3CCC(=O)O)=C2` (stereo not shown) [GaPPIX]: the Kd in test [3] came out at 280 ± 30 nM.

`C1=[N+]2c3ccccc3[N+]3=Cc4ccccc4[O][Fe-]23[O]c2ccccc21` [FeSal]: the Kd in test [3] was determined as 1050 ± 100 nM.
